Assay results from patent US6518308B2, “Compositions for adhesion prevention” (priority 2000, dated 2003).

What was measured:
[1] = system: human mesothelial cells or human fibroblasts; assay: cell cultures under hypoxic conditions, production of inflammatory cytokines and growth factors; assay type: cell-based; settings: human mesothelial cells or human fibroblasts cultured under hypoxic conditions, presence vs absence of dichloroacetic acid
Description: Similarly, cell cultures using human mesothelial cells or human fibroblasts are cultured under hypoxic conditions in the presence and absence of dichloroacetic acid. The production of inflammatory cytokines and growth factors is measured, and found to be reduced in the presence of dichloroacetic acid. These growth factors, such as IL-1 and TGF-β, are believed to be associated with adhesion development.

[2] = animal adhesion study, monitoring of serum alanine and lactate; assay type: in vivo, rat or rabbit; settings: in the presence of dichloroacetic acid, intravenous injection or slow release
Description: An animal adhesion study to evaluate the effectiveness of the pharmaceutical compositions described previously is conducted using a standardized animal model, such as a model of cecal abrasion in the rat or an oravian bisection in the rabbit.
The animals undergo lesioning by a surgeon unaware of group assignment, with necropsy performed one to two weeks later as is standard for that particular animal model.
The animals are randomized in a placebo control group and a group using dichloroacetic acid. The treatment begins preoperatively, and continues for five days after surgery. Dichloroacetic acid is administered by intravenous injection, or by slow release from a delivery agent, and is left in the peritoneal cavity following surgery. The maintenance of adequate amounts of dichloroacetic acid can be monitored by the measurement of serum alanine and lactate, which is reduced in the presence of dichloroacetic acid. Necropsy is performed on the animals, and adhesions are scored. Studies are completed on a total of 30 animals in each group in at least three settings.

SMILES: O=C(O)C(Cl)Cl [dichloroacetic acid]
- production of inflammatory cytokines and growth factors (such as IL-1 and TGF-β) [1]: reduced
- serum alanine and lactate [2]: reduced
